Reference: patent publication US6492325B1, “Use of α1β1 integrin receptor inhibitors and TGF-β1 inhibitors in the treatment of kidney disease” (Boys Town National Research Hospital, priority 1998, dated 2002)

Columns and labels:
129 Sv/J Alport mouse [1] = test: TGF-β1 inhibitors in 129 Sv/J Alport mouse, transmission electron microscopy of GBM ultrastructure; type: in vivo; conditions: 7 week old Alport mice, treated twice weekly from 3 weeks of age
Method: (§1) A. Transmission Electron Microscopy: Fresh external renal cortex was minced in 4% paraformaldehyde, allowed to fix for 2 hours, and stored at 5° C. in PBS (pH 7.4). The tissue was washed extensively (5 times for 10 minutes each at 4° C.) with 0.1M Sorenson's buffer (Sorenson's buffer was made by combining 100 ml of 200 mM monobasic sodium phosphate and 400 ml of 200 mM dibasic sodium phosphate with 500 ml of water, and adjusted to pH 7.4), and postfixed in 1% osmium tetroxide in Sorenson's buffer for 1 hour. The tissue was then dehydrated in graded ethanol (70%, then 80%, then 90%, then 100% for ten minutes each), and finally in propylene oxide and embedded in Poly/Bed 812 epoxy resin (Polysciences, Inc., Warrington, Pa.) following the procedures described by the manufacturer. In short, 42 ml of polybed 812 was mixed with 26 ml of dodecylsuccinic anhydride (DDSA, Polysciences, Inc.) and 24 ml of nadic methyl anhydride (Polysciences Inc.). One and a half mls of 2,4,6 tri(dimethly aminomethyl) phenol was added as a catalyst, and the activated resin frozen in 10 ml aliquots until needed for embedding specimen. Glomeruli were identified in 1 μm (micron) sections stained with toluidine blue, and thin sections were cut at 70 nm (nanometer) thickness using a Reichert Jung Ultracut E ultramicrotome (Cambridge Instrument Co, Vienna, Austria). […]

129 Sv/J Alport mouse [2] = test: TGF-β1 inhibitors in 129 Sv/J Alport mouse, scanning electron microscopy of glomeruli; type: in vivo; conditions: 7 week old Alport mice, treated twice weekly from 3 weeks of age
Text: B. Scanning Electron Microscopy: Small pieces (approximately 2 mm cubes) of kidney cortex were fixed in 3% phosphate buffered glutaraldehyde, then postfixed in 1% phosphate buffered osmium tetroxide. Samples were then dehydrated in graded ethanols, and critical point dried in carbon dioxide. The cubes were then cracked in pieces by stressing them with the edge of a razor blade, and mounted with glue onto stubs with the cracked surface facing upward. The surface was sputter coated with gold/palladium using well known procedures and visualized with a scanning electron microscope.
(§2) The experimental protocol was to inject with either FK506 (2 μg/g body weight, injected intraperitoneally, Fujisawa Pharmaceutical Co., Ltd., Osaka, Japan), or a soluble TGF-B1 receptor (25 μg/injection, intravenously through the tail vein, Biogen Inc., Cambridge, Mass.) twice weekly starting at 3 weeks of age. Kidneys were harvested at 7 weeks of age and subjected to the described analyses.
Some of the kidney specimen was processed for scanning electron microscopy. Glomeruli were exposed by freeze fracture of renal cortex, which removes the Bowman's capsule, exposing the outer layer of podocytes as they cover the capillary loops of the glomerulus. […]

[3] = test system: double knockout (DKO) mice; test: TGF-β1 inhibitors in double knockout mice, transmission electron microscopy of GBM ultrastructure; type: in vivo, mouse; conditions: treated twice weekly from 4 weeks, kidneys taken at 10 weeks
Method: as §1, with “Inc.).” for “Inc.). One and a half mls of 2,4,6 tri(dimethly aminomethyl) phenol was added as a catalyst, and the activated resin frozen in 10 ml aliquots until needed for embedding specimen. Glomeruli were identified in 1 μm (micron) sections stained with toluidine blue, and thin sections were cut at 70 nm (nanometer) thickness using a Reichert Jung Ultracut E ultramicrotome (Cambridge Instrument Co, Vienna, Austria).”
(§3) Mice (DKO mice are null for both the collagen α3(IV) and integrin α1 genes) were injected with TGF-β1 inhibitors FK506 (2 μg/gram body weight, twice weekly, intraperitoneal injections) or Biogen's TGF-β1 soluble receptor (25 μg per injection, twice weekly, intravenous injections) starting at four weeks of age. The kidneys were taken at 10 weeks of age and analyzed. […]

[4] = test system: double knockout (DKO) mice; test: TGF-β1 inhibitors in double knockout mice, urinary albumin (proteinuria) by gel electrophoresis; type: in vivo, mouse
Method: Urine samples were collected at weekly intervals and 0.5 μl fractionated by electrophoresis through 10% denaturing acrylamide gels. The protein in the gels was stained with coomassie blue and photographed. Bovine serum albumin was used as a molecular weight standard.
Mice (DKO mice are null for both the collagen α3(IV) and integrin α1 genes) were injected with TGF-β1 inhibitors FK506 (2 μg/gram body weight, twice weekly, intraperitoneal injections) or Biogen's TGF-β1 soluble receptor (25 μg per injection, twice weekly, intravenous injections) starting at four weeks of age. The kidneys were taken at 10 weeks of age and analyzed. The 10 week time point was chosen since, in the double knockouts, the disease typically progresses to the point where significant irregular thickening of the GBM is observed, and the animals are beginning to progress towards end stage renal failure. Thus, if the TGF-β1 inhibitors are to provide additional protective benefits, those benefits should be evident at this stage in GBM disease progression. […] A typical example of these differences is illustrated in FIG. 14. […]
Proteinuria was examined in these same mice collected weekly during the course of treatment. Samples (equivalent to approximately one half of one microliter) were analyzed by electrophoresis on polyacrylamide gels. […]

129 Sv/J Alport mouse [5] = test: Dual immunofluorescence staining for laminin α2 chain in glomeruli of treated Alport mice; type: in vivo; conditions: 7 week old 129 Sv/J Alport mouse
Method: as §2
In dual fluorescence analysis, fresh renal cortex was embedded in Tissue Tek aqueous embedding compound, snap frozen, and cut at 4 microns on a cryostat. Slides were postfixed in cold (−20° C.) 100% acetone for 10 minutes, and then air dried overnight. Tissue was rehydrated by three washes in PBS for 10 minutes each. The primary antibodies were diluted together in 7% non-fat dry milk (BioRad). An anti-entactin antibody (Chemicon Inc.) was used as a known marker for glomerular basement membrane at a dilution of 1:200. The laminin α2 chain-specific antibody was a gift from Dr. Peter Yurchenco (Robert Wood Johnson Medical School, Piscataway, N.J.). The specificity of this antibody for the laminin α2 chain was illustrated in Cheng et al., J. Biol. Chem., 272:31525-31532, 1997. The antibody was used at a concentration of 1:10. Primary antibodies were allowed to react overnight at 4° C. in a humidified dish. […]

double knockout mice [6] = test: Northern blot of kidney RNAs (matrix molecules, Timp) in double knockout mice treated with TGF-β1 inhibitors; type: in vivo, mouse; conditions: 10 week old double knockout mice; untreated show nine-fold reduction relative to control
Method: A. Northern Blot Analysis: Kidneys were removed and snap frozen in liquid nitrogen and ground to a powder in liquid nitrogen using a mortar and pestle. The powder was solubilized in TRIZOL reagent (GibCo/BRL, Grand Island, N.Y.) using 5 ml of reagent per kidney. Total cellular RNA was extracted according to the manufacturer's instructions. Twenty micrograms (20 μg) of RNA was fractionated on a 1.0% agarose/formaldehyde/MOPS (3-(N-morpholino)propanesulfonic acid) gel by electrophoresis at 80V for 4 hours. Gels were soaked in water for 45 minutes, and transferred to Hybond N (uncharged nylon, New England Nuclear, Inc., Boston, Mass.) by capillary blot overnight using 750 mM ammonium acetate (in water) as a transfer buffer. The RNA was UV crosslinked to the blot using a Stratalinker (Stratagene, Inc., LaJolla, Calif.). […] The quality of the RNA preparations and the consistency of loading was assessed by staining gels with ethidium bromide and scanning the 18S and 28S ribosomal RNA bands using a Gel Imager 2000 digital imaging system instrument and software package (Applied Imaging, Santa Clara, Calif.). […] Quantitative densitometric scanning confirmed no more than a 10% variance in sample loading. […] Quantitative differences in expression were assessed by phosphorimage analysis using a BioRad GS-525 phosphorimager (Bio Rad, Inc., Hercules, Calif.), and subtracted for background hybridization. […]

double knockout mice [7] = test: Immunoperoxidase staining for collagen type I and fibronectin in tubulointerstitium of double knockout mice; type: in vivo, mouse; conditions: 10 week old double knockout mice
Text: E. Immunoperoxidase Detection: The immunoperoxidase detection method was used in immunostaining for TGF-β1 in glomeruli as well as fibronectin and collagen type I in tubunointerstitium. The collagen type I antibody is rabbit anti-mouse, and was purchased from Biogenesis, Inc. (Sandown, N.H.). The antisera was used at a 1:100 dilution for immunoperoxidase staining. The fibronectin antibody used was the same as for immunfluorescence staining (a rabbit anti-human fibronectin antisera from Sigma Chemical Company, St. Louis, Mo.), and was used at a 1:100 dilution. […]
as §3
The role of TGF-β1 in upregulation of matrix proteins and in renal fibrosis has been well established (Yang et al., J. Am. Soc. Nephrol., 5:1610-1617, 1995; Border and Ruoslahti, J. Clin. Invest., 90:1-7, 1992). […] Animals injected with TGF-β1 inhibitors were analyzed using three markers for interstitial fibrosis and compared directly with 10 week old double knockout animals that were not treated with inhibitors. […]

C=CC[C@@H]1/C=C(\C)C[C@H](C)C[C@H](OC)[C@H]2O[C@@](O)(C(=O)C(=O)N3CCCC[C@H]3C(=O)O[C@H](/C(C)=C/[C@@H]3CC[C@@H](O)[C@H](OC)C3)[C@H](C)[C@@H](O)CC1=O)[C@H](C)C[C@@H]2OC [FK506, tacrolimus]
GBM thickening (transmission electron microscopy) (129 Sv/J Alport mouse [1]): obvious lack of basement membrane thickening | Podocyte foot process architecture (transmission electron microscopy) (129 Sv/J Alport mouse [1]): significant degree of swelling in the foot processes | Surface of the glomerulus / podocyte foot processes (scanning electron microscopy) (129 Sv/J Alport mouse [2]): looks much the same as that in the untreated Alport mouse | Focal GBM thickening and foot process effacement (transmission electron microscopy) [3]: marked reduction of both focal GBM thickening and foot process effacement | Performance of the glomerular filter (urinary albumin) ([4]; double knockout mice, relative to untreated double knockout mice, urine collected weekly): markedly improved | Urinary protein bands related to nephrotoxic effects ([4]; normal and DKO mice treated with FK506): diffuse group of bands evident at every timepoint | Accumulation of laminin α2 in the GBM (129 Sv/J Alport mouse [5]): does not prevent the accumulation of laminin α2 | Timp-3 mRNA expression in kidney (double knockout mice [6]): reduction in Timp-3 expression is not observed | Collagen type I accumulation in interstitium of renal cortex (double knockout mice [7]): relative absence of collagen type I accumulation
